Assay results from patent US7432093B2, “Soluble, functional apoptotic protease-activating factor 1 fragments” (The Trustees of Princeton University, priority 2004, dated 2008).

Experiments:
[1] = target: T1, caspase-9 activation by the soluble Apaf-1 fragment (Homo sapiens, UniProt O14727); test: Caspase-9 activation assay (fluorogenic, LEHD-AMC); type: biochemical; details: for Apaf-1-mediated caspase-9 activation by nucleotide with EDTA (hydrolysis blocked): 1 millimolar EDTA; for Apaf-1-mediated caspase-9 activation by nucleotide with EDTA (hydrolysis blocked) / Apaf-1-mediated caspase-9 activation by nucleotide: FIG. 6B/6C; for Apaf-1-mediated caspase-9 activation by nucleotide: Apaf-1 2 micromolar, caspase-9 0.2 micromolar, no EDTA
T1 construct: Leu-Glu-His6 (C); made in house; host or cells: Escherichia coli BL21(DE3), pET29 (both proteins)
T1 sequence (O14727 1-591): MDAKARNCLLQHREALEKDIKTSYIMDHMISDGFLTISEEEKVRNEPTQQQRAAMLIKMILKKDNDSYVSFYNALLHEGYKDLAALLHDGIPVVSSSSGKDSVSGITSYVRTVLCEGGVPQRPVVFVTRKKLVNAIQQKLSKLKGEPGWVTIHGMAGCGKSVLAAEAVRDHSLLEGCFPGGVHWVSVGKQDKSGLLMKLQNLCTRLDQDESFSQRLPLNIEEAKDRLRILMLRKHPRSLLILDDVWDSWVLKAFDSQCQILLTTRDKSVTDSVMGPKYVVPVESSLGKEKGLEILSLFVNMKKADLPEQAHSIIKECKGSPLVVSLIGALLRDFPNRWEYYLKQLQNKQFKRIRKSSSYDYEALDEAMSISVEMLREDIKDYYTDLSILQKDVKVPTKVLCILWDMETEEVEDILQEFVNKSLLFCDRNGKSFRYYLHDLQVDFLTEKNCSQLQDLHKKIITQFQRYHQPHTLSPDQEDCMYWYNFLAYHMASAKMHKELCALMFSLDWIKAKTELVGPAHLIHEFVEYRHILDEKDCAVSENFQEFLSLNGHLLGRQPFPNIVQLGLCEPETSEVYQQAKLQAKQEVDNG
T1 sequence (P55211 1-315 partner limits assumed): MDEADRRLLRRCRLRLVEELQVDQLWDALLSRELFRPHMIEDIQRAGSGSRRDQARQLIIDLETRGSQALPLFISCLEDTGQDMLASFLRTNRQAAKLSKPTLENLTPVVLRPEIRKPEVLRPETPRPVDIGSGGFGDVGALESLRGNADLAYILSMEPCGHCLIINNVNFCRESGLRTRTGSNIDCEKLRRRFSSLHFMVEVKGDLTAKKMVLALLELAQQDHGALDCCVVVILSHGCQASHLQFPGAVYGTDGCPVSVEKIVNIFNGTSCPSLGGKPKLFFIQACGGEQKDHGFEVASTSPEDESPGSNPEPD
T1 sequence (P55211 331-416 partner limits assumed): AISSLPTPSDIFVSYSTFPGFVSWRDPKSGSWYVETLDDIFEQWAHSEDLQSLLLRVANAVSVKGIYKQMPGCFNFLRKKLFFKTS
Protocol: A fluorogenic assay was developed to monitor caspase-9 activation by the soluble Apaf-1 fragment. […] Then, caspase-9 and Apaf-1 were added to a final volume of 200 microliter and final concentrations of 0.2 micromolar and 2 micromolar, respectively. After incubation for 5 minutes at room temperature, the caspase-9 substrate LEHD-AMC (a tetrapeptide coupled to 7-amino […]) was added to the reaction at a final concentration of 200 micromolar. The conversion of the fluorogenic substrate was then measured using a Hitachi F2500 fluorescence spectrophotometer with an excitation wavelength of 380 nanometers and a fluorescence detection wavelength of 440 nanometers.

[2] = type: physicochemical, E. coli
Protocol: Preferably, solubility of the fragment is assessed in a lysate of a bacterial culture used to produce the fragment at a concentration of at least 1 milligram per liter of bacterial culture.
All constructs for protein expression were generated using a standard PCR-based cloning strategy, and the identity of individual clones was verified by double-stranded plasmid sequencing. A soluble Apaf-1 fragment (residues 1-591, sequence (SEQ ID NO: 1) shown in FIG. 1) was over-expressed in Escherichia coli strain BL21(DE3) using plasmid vector pET29 having the nucleotide sequence described by Jiang et al. (2000, J. Biol. Chem. 275:31199-31203) operatively ligated therein. The coding sequence included an additional sequence encoding eight amino acid residues at its carboxy-terminal end (i.e., linked to residue 591 in the translated protein). These residues (Leu-Glu-His6) included a nickel-binding hexa-histidine sequence used for metal affinity chromatographic purification of the expressed protein. Soluble Apaf-1 was purified from the cell lysate using a Ni-NTA (nitrilotriacetic acid-ligated nickel; Qiagen) chromatography column. Dithiothreitol (DTT) and ethylenediamine tetraacetic acid (EDTA) were added to the eluted fraction in final concentrations of 5 millimolar each. After incubation for 30 minutes on ice, the protein solution was applied to an anion-exchange column (Source-15Q, Pharmacia) for further purification.

## Nc1ncnc2c1ncn2[C@@H]1O[C@H](COP(=O)(O)OP(=O)(O)OP(=O)(O)O)[C@@H](O)[C@H]1O [ATP]
[1]
  Apaf-1-mediated caspase-9 activation by nucleotide with EDTA (hydrolysis blocked): completely abolished the positive effect of ATP
  Apaf-1-mediated caspase-9 activation by nucleotide: further drastically improved caspase-9 activity

## Nc1ncnc2c1ncn2[C@@H]1O[C@H](COP(=O)(O)OP(=O)(O)OP(O)(O)=S)[C@@H](O)[C@H]1O [ATP-gamma-S]
[1]
  Apaf-1-mediated caspase-9 activation by nucleotide: unable to support caspase-9 activation

## CSc1nc(N)c2ncn([C@@H]3O[C@H](COP(=O)(O)OP(=O)(O)OP(=O)(O)O)[C@@H](O)[C@H]3O)c2n1 [APM, 2-methylthio-ATP]
[1]
  Apaf-1-mediated caspase-9 activation by nucleotide with EDTA (hydrolysis blocked): abrogated this effect
  Apaf-1-mediated caspase-9 activation by nucleotide: supported Apaf-1-mediated caspase-9 activation

## Nc1nc(Cl)nc2c1ncn2[C@H]1C[C@H](O)[C@@H](COP(=O)(O)OP(=O)(O)OP(=O)(O)O)O1 [Fragment 2CdATP]
[1]
  optimal concentration for caspase-9 activation: approximately 100 micromolar
  Apaf-1-mediated caspase-9 activation by nucleotide with EDTA (hydrolysis blocked): loss of this response
  Apaf-1-mediated caspase-9 activation by nucleotide: potent activator for caspase-9 activation

## Nc1ncnc2c1ncn2[C@H]1C[C@H](O)[C@@H](COP(=O)(O)OP(=O)(O)OP(=O)(O)O)O1 [dATP]
[1]
  optimal concentration for caspase-9 activation: 1 to 5 µM
  Apaf-1-mediated caspase-9 activation by nucleotide with EDTA (hydrolysis blocked): completely abolished caspase-9 activation
[1]; above the optimal range of 1-5 micromolar
  Apaf-1-mediated activation of caspase-9 at higher concentrations: reduced slightly
[1]; nucleotide at 2 micromolar
  caspase-9 activation compared with ATP: greater activation of caspase-9 than did ATP

B1: 1-469: recombinant Apaf-1 fragment, residues 1-469 of SEQ ID NO: 1 (protein, listed as Homo sapiens)
chain: MDAKARNCLLQHREALEKDIKTSYIMDHMISDGFLTISEEEKVRNEPTQQQRAAMLIKMILKKDNDSYVSFYNALLHEGYKDLAALLHDGIPVVSSSSGKDSVSGITSYVRTVLCEGGVPQRPVVFVTRKKLVNAIQQKLSKLKGEPGWVTIHGMAGCGKSVLAAEAVRDHSLLEGCFPGGVHWVSVGKQDKSGLLMKLQNLCTRLDQDESFSQRLPLNIEEAKDRLRILMLRKHPRSLLILDDVWDSWVLKAFDSQCQILLTTRDKSVTDSVMGPKYVVPVESSLGKEKGLEILSLFVNMKKADLPEQAHSIIKECKGSPLVVSLIGALLRDFPNRWEYYLKQLQNKQFKRIRKSSSYDYEALDEAMSISVEMLREDIKDYYTDLSILQKDVKVPTKVLCILWDMETEEVEDILQEFVNKSLLFCDRNGKSFRYYLHDLQVDFLTEKNCSQLQDLHKKIITQFQRYHQ
[2]
  Solubility: +
